Legend:
Assay type in all cases: physicochemical
[1] = Karl Fischer moisture content of ceftibuten hydrate batches; details: batches prepared by procedure of Example 1, dried at 30° C. in a vacuum oven
Protocol: (§1) In a reaction vessel are charged 400 mL of demineralized water, 37.0 g crude Ceftibuten and 190 mL acetone at 20-25° C. To this mixture is added with stirring a solution of 22.1 g NaHCO3 and 252.2 mL of demineralized water, keeping the pH at 6.5-6.9. The pH is then adjusted to 6.5-6.7 using 15% aqueous H2SO4. To the resulting solution are charged 13.8 g aluminum oxide, 5 g Norit charcoal, 1.5 g Na2S2O4 and 0.25 g disodium EDTA. The mixture is stirred for 20-25 min maintaining pH at 6.5-6.7 with 15% aqueous H2SO4, and is then filtered and washed with 200 mL of demineralized water. The filtrate is added over 20-30 min to a second vessel containing 630 mL water, 81 g malic acid and 175 g 15% aqueous H2SO4, maintaining the temperature at 20-25° C. After stirring for 50-70 min, the pH is adjusted to 2.9-3.1 over 20-25 min at 20-25° C. with a solution constituted by 30 g of K2CO3 and 70 g of demineralized water. This mixture is stirred for 2-2.5 hours, after which it is filtered and washed 5 times with demineralized water (250 mL each). The wet product is dried at 30° C. in a vacuum oven. Depending on the extent of drying, the resulting product may be Form A, Form B, or a mixture of Forms A and B. Three batches prepared by this procedure are shown in Table 1 below.
Karl Fischer analyses were carried out using a Mettler-Toledo C20 Coulometric KF titrator. The instrument was calibrated using a Hydranal water standard containing 1% water. The titrant was a Hydranal methanol solution.

[2] = Physical stability under relative humidity conditions, checked by X-ray powder diffraction
Text: In some embodiments, Form A of the compound of Formula (I) may contain between two to three molar equivalents of water. Samples of Form A of the compound of Formula (I) were exposed to several relative humidity conditions ranging from 15% to 100% relative humidity for a period of 14 days, after which an X-ray powder diffraction was taken. In one embodiment, samples Form A of the compound of Formula (I) were exposed to several relative humidity conditions, including 15% relative humidity, 30% relative humidity, 45% relative humidity, 60% relative humidity, 75% relative humidity, and 100% relative humidity for a period of 14 days, after which an X-ray powder diffraction was taken. […] In some embodiments, Form B of the compound of Formula (I) may contain between two to three molar equivalents of water. […] X-ray diffraction was used to characterize the compound of Formula (I). A Rigaku Smart-Lab X-ray diffraction system was configured for reflection Bragg-Brentano geometry using a line source X-ray beam. The x-ray source was a Cu Long Fine Focus tube that may be operated at 40 kV and 44 mA. That source provides an incident beam profile at the sample that changes from a narrow line at high angles to a broad rectangle at low angles. […] Each sample was analyzed from 2 to 40° 2θ using a continuous scan of 6° 2θ per minute with an effective step size of 0.02° 2θ.

[3] = Moisture sorption-desorption (dynamic vapor sorption) analysis; details: for Crystalline form after moisture sorption-desorption analysis: 25° C., 5 to 95% RH adsorption and 95 to 5% RH desorption, 10% RH steps
Protocol: In one embodiment, moisture sorption-desorption analyses were taken after running the moisture sorption-desorption experiments. […] DVS analysis was carried out TA Instruments Q5000 Dynamic Vapor Sorption analyzer. The instrument was calibrated with standard weights and a sodium bromide standard for humidity. Samples were analyzed at 25° C. with a maximum equilibration time of 60 minutes in 10% relative humidity (RH) steps from 5 to 95% RH (adsorption cycle) and from 95 to 5% RH (desorption cycle).

[4] = Differential scanning calorimetry (DSC); details: 25° C. to 350° C. at 10° C. per minute, nitrogen purge
Protocol: DSC analysis was carried out using a TA Instruments Q2500 Discovery Series instrument. The instrument temperature calibration was performed using indium. The DSC cell was kept under a nitrogen purge of ˜50 mL per minute during the analysis. The sample was placed in a standard, crimped, aluminum pan and was heated from approximately 25° C. to 350° C. at a rate of 10° C. per minute.

[5] = Form stability upon storage/shipping at ambient temperature and humidity
Protocol: as §1

SMILES	Hygroscopicity [3]	Crystalline form after moisture sorption-desorption analysis [3]	Dehydration temperature during heating [4]	Crystalline form change / stability upon storage/shipping [5]	further results
Nc1nc(/C(=C/CC(=O)O)C(=O)N[C@@H]2C(=O)N3C(C(=O)O)=CCS[C@H]23)cs1 [Batch 3, ceftibuten]					Moisture Content ([1]; listed as 3): 11.68%
Nc1nc(/C(=C/CC(=O)O)C(=O)N[C@@H]2C(=O)N3C(C(=O)O)=CCS[C@H]23)cs1 [Form A, ceftibuten]	moderately hygroscopic	convert to Form B	approximately 100 °C		Form conversion under extremely dry conditions ([2]; 0% relative humidity): may convert to Form B; X-ray powder diffraction form after relative humidity exposure ([2]; 15%, 30%, 45%, 60%, 75% and 100% relative humidity, 14 days): match for Form A
Nc1nc(/C(=C/CC(=O)O)C(=O)N[C@@H]2C(=O)N3C(C(=O)O)=CCS[C@H]23)cs1 [Batch 2, ceftibuten]					Moisture Content ([1]; listed as 2): 8.60%

Continued, in another order:

Hygroscopicity [3]	Crystalline form after moisture sorption-desorption analysis [3]	Dehydration temperature during heating [4]	Crystalline form change / stability upon storage/shipping [5]	SMILES	further results
moderately hygroscopic	remain stable and unchanged	approximately 100 °C	increased stability	Nc1nc(/C(=C/CC(=O)O)C(=O)N[C@@H]2C(=O)N3C(C(=O)O)=CCS[C@H]23)cs1 [Form B, ceftibuten]	
			converted from a mixture to all Form B	Nc1nc(/C(=C/CC(=O)O)C(=O)N[C@@H]2C(=O)N3C(C(=O)O)=CCS[C@H]23)cs1 [Batch 1, ceftibuten]	Moisture Content [1]: 9.44%
